Where two headings read alike, the source gives them in different places.
How the values were obtained:
[1] = Partition coefficient octanol / pH 7.4 tampon; details: for LogP Coefficient: octanol / pH 7.4 tampon, 25° C.; for CNS LogP: partition coefficient in relation to ability to cross the HEB
Procedure: (§1) The analyzed parameters were: specific permeability (Sp), this is an indicator of the compound's ability to cross the hematoencephalic barrier (HEB) by passive diffusion, and the partition coefficient (LogP), which corresponds to the partition coefficient of the compound between Octanol and the pH 7.4 phosphate tampon, which is a predictive element for the compound's penetration of the HEB.
Briefly, the partition coefficient (log Po/w) was determined in a pH 7.4 tampon solution, adjusted with 0.1 M sodium hydroxide. The organic phase utilized octanol saturated with the pH 7.4 tampon solution. A 1 mg/mL solution of the drug in methanol was prepared. Dilutions with concentrations ranging from 0.02 to 0.4 mg/mL were prepared from these solutions. Then […] portions were taken from each of these previously prepared stock solutions in 25 mL volumetric flasks, with the volume completed with the tampon pH 7.4. 25 ml of octanol where then measured and placed in three decantation funnels, with the previously prepared solutions added to each, mixing both phases by vigorous agitation during two minutes. […] Both phases are separated once equilibrium had been reached. The aqueous phase was centrifuged during 3 minutes to ensure complete separation of the phases. The entire process was carried out at a temperature of 25° C. The quantification was carried out with a UVN spectrophotometer.

[2] = Parallel Artificial Membrane Permeability assay (PAMPA)
Excerpt: as §1
The Parallel Artificial Membrane Permeability assay (PAMPA) is based on the ability of compounds to diffuse from a donor compartment through a Polyvinylidene Fluoride Membrane Filter (PVDF) covered with a phosphatidylcholine solution at 20% towards a second acceptor compartment, which is analyzed. […] The quantification was carried out by means of spectrophotometry, using pans 1 mm in length and with a capacity of 300 uL.

[3] = molecular target: Aβ1-42 Peptide Aggregates (Homo sapiens, UniProt P05067); assay: ^3H-Astemizole saturation binding to Aβ1-42 peptide aggregates
[4] = tested on: human tau protein aggregates (PHFs); assay: ^3H-Astemizole saturation binding to tau protein aggregates; details: for Bmax/Kd Index: Tau Protein Aggregates (PHF)
mGluR7 = mGluR7 (Homo sapiens, UniProt Q14831); details: Yanamala et al., 2008; cited from earlier work
[5] = In vivo pharmacokinetics in blood and cerebral tissue (HPLC/UV); details: male, C2 albino, rat, iv, astemizole 16 mg/kg, lansoprazole 8 mg/kg
[6] = tested on: neurofibrillary tangles (NFTs); assay: Fixation in neurofibrillary tangles in postmortem brain sections of Alzheimer patients; details: co-localization with PHF-1 antibody, tritiated or fluorescent marking
Procedure: This evaluation was carried out by means of immunohistochemistry with antibodies specific for senile plaque, 6E10 antibody reactive against 6-13 residues of Aβ peptide, and the tau-specific PHF1 antibody.
In short, postmortem brains of patients with a proven clinical diagnosis of Alzheimer's Disease are set in formalin at 10%, with slices with sections varying from 5 to 200 μm made, preferably with 20 μm. These slices are incubated in benzimidazoles marked pursuant to the present invention and afterwards incubated with the specific 6E10 and PHF1 antibodies to determine the co-localization of the marker in the tau protein structures of the cerebral sections under study.
For practical purposes and as part of the examples, the co-localization of marked tau with fluorophore conjugate antibodies with the localization of the fluorescently marked drug is analyzed. The co-localization of both drugs with the tau aggregated structures in the hippocampus region, entorhinal cortex and nucleous of Meynert in the postmortem brains with Alzheimer's Disease was reviewed.

[7] = rat, in vivo, iv
Alzheimer PHF = Alzheimer PHF (Homo sapiens, UniProt P10636); assay: ^3H-Astemizole displacement test, Alzheimer PHF
Tau Filaments in Vitro = Tau Filaments in Vitro (Homo sapiens, UniProt P10636); assay: ^3H-Astemizole displacement test, tau filaments in vitro
Aβ Fibers = Aβ Fibers (Homo sapiens, UniProt P05067); details: Okamura et al., 2005; cited from earlier work
in vivo = details: male, C2 albino, rat, iv
[8] = saturation test, Tau Protein Aggregates

Chain of Aβ1-42 Peptide Aggregates (P05067 672-713): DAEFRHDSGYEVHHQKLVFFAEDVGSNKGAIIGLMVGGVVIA
Chain of mGluR7 (Q14831 35-915): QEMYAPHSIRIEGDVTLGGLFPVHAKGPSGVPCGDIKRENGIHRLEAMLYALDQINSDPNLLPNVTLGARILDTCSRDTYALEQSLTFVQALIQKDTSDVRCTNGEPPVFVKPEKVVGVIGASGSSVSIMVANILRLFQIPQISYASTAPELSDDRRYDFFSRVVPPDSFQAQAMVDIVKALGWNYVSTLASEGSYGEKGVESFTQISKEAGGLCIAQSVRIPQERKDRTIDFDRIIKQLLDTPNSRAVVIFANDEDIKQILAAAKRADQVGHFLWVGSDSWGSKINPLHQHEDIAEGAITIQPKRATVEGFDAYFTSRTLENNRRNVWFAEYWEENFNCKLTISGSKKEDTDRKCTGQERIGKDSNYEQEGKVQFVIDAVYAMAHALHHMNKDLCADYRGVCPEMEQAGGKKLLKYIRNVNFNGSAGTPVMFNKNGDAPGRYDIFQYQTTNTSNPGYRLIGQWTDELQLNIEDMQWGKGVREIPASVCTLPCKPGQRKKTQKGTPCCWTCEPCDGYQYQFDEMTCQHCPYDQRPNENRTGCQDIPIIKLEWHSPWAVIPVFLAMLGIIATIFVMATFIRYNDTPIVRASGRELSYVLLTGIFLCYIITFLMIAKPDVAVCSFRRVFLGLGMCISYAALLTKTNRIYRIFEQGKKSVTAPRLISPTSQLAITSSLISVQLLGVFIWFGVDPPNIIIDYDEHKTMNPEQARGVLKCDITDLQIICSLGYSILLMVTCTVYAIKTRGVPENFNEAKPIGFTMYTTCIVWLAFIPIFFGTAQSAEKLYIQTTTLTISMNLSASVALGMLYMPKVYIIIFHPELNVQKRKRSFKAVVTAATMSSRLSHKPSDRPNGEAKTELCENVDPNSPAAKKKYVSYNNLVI
Chain of Alzheimer PHF (P10636 623-758 limits assumed): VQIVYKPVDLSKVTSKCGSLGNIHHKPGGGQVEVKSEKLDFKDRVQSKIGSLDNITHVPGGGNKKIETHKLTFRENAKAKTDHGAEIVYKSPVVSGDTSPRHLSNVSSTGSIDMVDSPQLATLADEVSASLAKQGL
Chain of Tau Filaments in Vitro (P10636 1-441 isoform P10636-8): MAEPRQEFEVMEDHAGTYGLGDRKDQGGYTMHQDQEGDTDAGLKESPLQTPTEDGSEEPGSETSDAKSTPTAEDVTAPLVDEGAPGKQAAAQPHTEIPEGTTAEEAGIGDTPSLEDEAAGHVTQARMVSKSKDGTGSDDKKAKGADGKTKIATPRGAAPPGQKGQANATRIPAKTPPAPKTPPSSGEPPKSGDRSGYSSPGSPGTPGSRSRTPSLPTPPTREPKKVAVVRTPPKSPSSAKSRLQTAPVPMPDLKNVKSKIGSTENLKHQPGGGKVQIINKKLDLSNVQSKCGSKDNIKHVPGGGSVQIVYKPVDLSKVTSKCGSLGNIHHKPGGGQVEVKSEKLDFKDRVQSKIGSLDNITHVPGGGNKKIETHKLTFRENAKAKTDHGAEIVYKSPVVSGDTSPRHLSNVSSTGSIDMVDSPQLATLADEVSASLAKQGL
Chain of Aβ Fibers (P05067 672-713 limits assumed): as the sequence (P05067 672-713) above

## CCCC(C)C1(CC)C(=O)NC(=S)NC1=O (centres unmarked) [Thiopental]
[1]
  LogP Coefficient: 1.4
[2]
  Papp: 17 ×10⁻⁶ cm/s

## Cc1c(OCC(F)(F)[18F])ccnc1C[S+]([O-])c1nc2ccccc2[nH]1 (centres unmarked) [^18F-Lansoprazole]
At 30 minutes
  brain/blood bio-distribution relation: 0.23
  reaches the brain: 0.3%
At 60 minutes
  brain/blood bio-distribution relation: 1.27
  reaches the brain: 0.14%

## [3H]C([3H])([3H])Oc1ccc(CCN2CCC(Nc3nc4ccccc4n3Cc3ccc(F)cc3)CC2)cc1 [^3H-Astemizole]
[3]
  Bmax/Kd Index: 0.057
[3]; saturation test
  Bmax: 0.12 pmol/nmol Aβ1-42
[4]
  Bmax/Kd Index: 3.316
[4]; at low concentrations, FIG. 7
  binding affinity to tau protein aggregate forms compared with Aβ: greater binding affinity to tau protein aggregate forms than to Aβ
[4]; [8]
  Bmax: 13.07 nM

## c1ccc(C(NCCNC(c2ccccc2)c2ccccc2)c2ccccc2)cc1 [AMN82]
mGluR7
  Binding Energies Autodock: -7.56 kcal/mol

## COc1ccc(CCN2CCC(Nc3nc4ccccc4n3Cc3ccc(F)cc3)CC2)cc1 [^3H-Astemizole]
[3]; saturation test
  Kd: 2.1 nM
[4]; [8]
  Kd: 3.94 nM

## Cc1c(OCC(F)(F)F)ccnc1C[S+]([O-])c1nc2ccccc2[nH]1 (centres unmarked) [Lansoprazole]
[5]; brain (cerebral tissue), maximum concentration (Tmax) in the brain, cerebral tissue
  Tmax: 37 min
[5]; whole blood (intracardiac), maximum concentration (Tmax) in blood, intracardiac blood
  Tmax: 30 min
[6]
  marking of tau aggregates / NFTs in postmortem AD brain sections: bond to the NFTs structures
[6]; listed as Lansoprazol
  marking of tau aggregates / NFTs in postmortem AD brain sections: fluorescent staining of Tau protein aggregates
[6]; listed as lansoprazole
  marking of tau aggregates / NFTs in postmortem AD brain sections: efficiently and selectively mark those sectors positive for tau
[7]; male, C2 albino
  persistency in the encephalon / brain: at least 3 hours
[7]
  average life in plasma compared with brain: less than in the brain
[2]; PAMPA
  CNS Transport: Positive
  Coefficient (Sp) specific permeability: 3.63E−05
Alzheimer PHF
  Ki: 833 nM
Tau Filaments in Vitro
  Ki: 2.7 nM

## C[N+]12CCC(CC1)C(OC(=O)C(O)(c1ccccc1)c1ccccc1)C2 (centres unmarked) [Clidinium Bromide]
[1]
  LogP Coefficient: −0.092
  CNS LogP: Unfavorable
[2]
  CNS Transport: Negative
  Papp: 0.029 ×10⁻⁶ cm/s

## CNc1ccc(/C=C/c2nc3ccc(OCCF)cc3o2)cc1 [BF168]
Aβ Fibers
  Ki: 6.4 nM

## COc1ccc(CCN2CCC(Nc3nc4ccccc4n3Cc3ccc(F)cc3)CC2)cc1 [Astemizole]
[3]
  Bmax/Kd Index: 0.057
In vivo; maximum concentration (Tmax) in blood
  Tmax: 28 min
In vivo; maximum concentration (Tmax) in the brain
  Tmax: 55 min
[6]
  marking of tau aggregates / NFTs in postmortem AD brain sections: bond to the NFTs structures
[6]; listed as astemizole
  marking of tau aggregates / NFTs in postmortem AD brain sections: efficiently and selectively mark those sectors positive for tau
[4]
  Bmax/Kd Index: 3.316
[1]
  LogP Coefficient: 5.57
  CNS LogP: Favorable
[7]
  average life in plasma compared with brain: less than in the brain
[2]; PAMPA
  CNS Transport: Positive
  Papp: 147 ×10⁻⁶ cm/s

From US8916132B2, “Benzimidazole-derived compounds use as markers in the case of neurodegenerative diseases” (Servicios Cientificos Neuroinnovation Ltda, priority 2008, dated 2014)
